A value given as a limit tells only on which side of the number the result lay.

Consider 1 molecule from patent US11718813B2, “2-in-1 sanitizing and rinse aid compositions employing amine based surfactants in machine warewashing” (ECOLAB USA INC., priority 2020, dated 2023).

For one data set, the system named is Staphylococcus aureus. Put plainly: AOAC Official Method 960.09 Germicidal and Detergent Sanitizing Action of Disinfectants. The class given is cell-based. The note with it: pH 5, about 12.5 to about 400 ppm tested, 5-log reached only at the highest concentration tested. From the text: (§1) As used herein, the term “sanitizer” refers to an agent that reduces the number of bacterial contaminants to safe levels as judged by public health requirements. […] These reductions can be evaluated using a procedure set out in Germicidal and Detergent Sanitizing Action of Disinfectants, Official Methods of Analysis of the Association of Official Analytical Chemists, paragraph 960.09 and applicable sections, 15th Edition, 1990 (EPA Guideline 91-2). According to this reference a sanitizer should provide a 99.999% reduction (5-log order reduction) within 30 seconds at room temperature, 25±2° C., against several test organisms. […] Differentiation of antimicrobial “-cidal” or “-static” activity, the definitions which describe the degree of efficacy, and the official laboratory protocols for measuring this efficacy are considerations for understanding the relevance of antimicrobial agents and compositions. Antimicrobial compositions can affect two kinds of microbial cell damage. The first is a lethal, irreversible action resulting in complete microbial cell destruction or incapacitation. The second type of cell damage is reversible, such that if the organism is rendered free of the agent, it can again multiply. The former is termed microbiocidal and the later, microbiostatic. A sanitizer and a disinfectant are, by definition, agents which provide antimicrobial or microbiocidal activity.
(§2) In order to determine the efficacy of the amine-based surfactants in various environments as determined by different pH values, the surfactants were tested for antimicrobial efficacy on E. coli and Staphylococcus aureus.

The next data set has as its system E. coli. The description is as above. The class given is cell-based.
Source text: as §1, §2

A short description of the next data set: Glewwe foam test. The class given is physicochemical. The note with it: foam height; 120 F; pH 8.5. On the procedure: The ability of a defoaming agent to control the foaming profile of the surfactant was also tested.
The foam height never surpassed the maximum height of 3 inches allowed by the Glewwe test for a passing test and generally had no foam or a low froth present. Even at a 3:1 ratio of surfactant to defoamer, the fatty alcohol alkoxylate was sufficient to keep the foam low for machine ware washing. At lower ratios, such as 2:1 or 1:1 surfactant to defoamer, the level of foam was even better maintained at a low to nonexistent amount.

Data set [1] in a line: Surface tension / critical micelle concentration on a tensiometer. The class given is physicochemical. To be noted: 0.001 to 1 wt % in DI water, FIG. 1. On the procedure: All samples were run on a tensiometer with the concentration of the amine surfactants ranging from 0.001 to 1 wt % in up to 50 mL DI water.

For the molecule `CCCCCCCCCCCCN(CCCN)CCCN` [bis(3-aminopropyl)dodecylamine], the log reduction was below 5 log in the data set on Staphylococcus aureus and below 5 log with E. coli (pH 5, about 12.5 to about 400 ppm tested, 5-log reached only at the highest concentration tested). Also, the “concentration to achieve a 5-log reduction” value with E. coli (pH 7) was 50 ppm. Further, the “Surfactant Foam Profile 0 min” value in “Glewwe foam test” is 9. For the same molecule, the “Surfactant Foam Profile 15 sec” value in “Glewwe foam test” was found to be 9. The “Surfactant Foam Profile 1 min” value in the data set “Glewwe foam test” came out at 8. The surface tension result in data set [1] (pH 5) is “about 35 mN/m”; in data set [1] (pH 7), “about 35 mN/m”; in data set [1] (pH 9) it was “about 32 mN/m”.
